Source: paper PMC11352409, “Subtype-Specific Ligand Binding and Activation Gating in Homomeric and Heteromeric P2X Receptors” (Biomolecules, 2024)

Molecular target: T1, human P2X2 receptors (Homo sapiens, UniProt Q9UBL9)
T1 construct: expressed in transfected cells
T1 sequence (Q9UBL9 1-404 isoform Q9UBL9-2): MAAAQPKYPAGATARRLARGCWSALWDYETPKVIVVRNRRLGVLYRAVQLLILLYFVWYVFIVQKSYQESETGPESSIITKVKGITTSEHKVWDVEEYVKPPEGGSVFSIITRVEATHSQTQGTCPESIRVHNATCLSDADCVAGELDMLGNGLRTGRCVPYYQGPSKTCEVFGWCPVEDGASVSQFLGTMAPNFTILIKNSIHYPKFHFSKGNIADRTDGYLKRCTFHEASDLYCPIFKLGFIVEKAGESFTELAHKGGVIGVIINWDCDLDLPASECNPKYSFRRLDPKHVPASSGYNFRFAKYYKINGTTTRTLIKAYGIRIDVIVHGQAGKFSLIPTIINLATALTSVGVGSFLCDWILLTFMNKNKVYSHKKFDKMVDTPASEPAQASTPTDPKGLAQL
Experiment: Confocal microscopy binding of fluorescent ATP derivatives to HEK293 cells expressing hP2X2
Conditions: for Binding to receptor: hP2X2, confocal binding signal
Experimental: For the detection of ligand binding, the cells were incubated with the fluorescent ATP derivatives in chambered coverslips or 96-well plates with cover-slip bottoms. The surface was coated with 0.1 mg/mL of poly-L-lysine for 12 h and washed twice with PBS before seeding the cells at […] density. The cells were suspended 24 h after induction and allowed to settle for two hours before being utilised for the measurements. The solutions were freshly prepared before each experiment. The bulk solution was counter-stained with the red fluorescence dye Dy647. Each confocal voxel covering the cell membrane contained both the signal from the bound ligand and the signal from ligands in the bulk solution. This additional signal, e.g., the fraction of the bulk solution inside a voxel, varied from pixel to pixel and can hardly be described theoretically.
Figure 2 Confocal microscopy was used to characterise the binding of fluorescently tagged ligands to HEK 293 cells stably expressing human P2X2 receptors. (a) Structure of fATP and α,βMe-fATP. The dye DY547P1 is attached to the 2-position of the purine ring through an aminohexylthio-linker. (b) Representative confocal images for quantification of fATP and α,βMe-fATP binding, including approximately 200 stably transfected cells/mm^2. Specific binding is proven by the lack of signal in non-induced cells and in cells expressing P2X2 receptors in the presence of 100 µM ATP. […]
The concentration–binding relationships were normalised to their maximum relative fluorescence intensities at a saturating fATP or α,βMe-fATP concentration.
Measuring the binding of ligands to receptors is challenging. […] Ligand binding was measured in stably transfected HEK293 cells expressing P2X receptors, attached to the glass bottom of the experimental chamber (Figure 2b). Quantifying ligand binding by automated fluorescence methods remains demanding at low expression levels and high ligand concentrations when the background signal becomes significant. To address this issue, we used the red fluorescence dye Dy647 at a concentration of 1 µM [27, 33, 34]. […]

SMILES | Binding to receptor | Fraction of ligand remaining bound at high Mg2+ (hP2X2, fATP binding after application of 10 mM Mg2+)
COCC[N+]1=C(C=CC=C2N(CCCCCC(=O)NCCCCCCSc3nc(N)c4ncn(C5OC(COP(=O)(O)CP(=O)(O)OP(=O)(O)O)C(O)C5O)c4n3)c3ccc(S(=O)(=O)O)cc3C2(C)C)C(C)(C)c2cc(S(=O)(=O)[O-])ccc21 (stereo not drawn) [α,βMe-fATP, 2-[DY-547P1]-AHT-α,βMe-ATP] | robust binding affinity | 
COCC[N+]1=C(C=CC=C2N(CCCCCC(=O)NCCCCCCSc3nc(N)c4ncn(C5OC(COP(=O)(O)OP(=O)(O)OP(=O)(O)O)C(O)C5O)c4n3)c3ccc(S(=O)(=O)O)cc3C2(C)C)C(C)(C)c2cc(S(=O)(=O)[O-])ccc21 (stereo not drawn) [fATP, 2-[DY-547P1]-AHT-ATP] | robust binding affinity | ~ 40%
